Among the data in patent US20110269783A1, “NOVEL 2,3-DIAMINO-QUINAZOLINONE DERIVATIVES AND THEIR MEDICAL USE” (NEUROSEARCH A/S, priority 2008, published 2011) are EC50 and Emax values, retold here.

The target of this test is T1, human Kv7.2+3 (Homo sapiens, UniProt O43525+O43526).
T1 construct: expressed in transfected cells; host or cells: HEK293
Description: FLIPR-based thallium influx characterization of Kv7.2+3 modulators. Format: cell-based. Conditions: for EC50: HEK293 cells over-expressing human Kv7.2+3, Tl+ influx, BTC-AM, FLIPR, 50% of channel activity compared to retigabine control responses; for Emax: maximal response relative to the reference (retigabine) response, HEK293 human Kv7.2+3, Tl+ influx FLIPR, read-out: Efficacy. How it is done: This experiment determines the ability of a test compound to modulate the activity of Kv7.2+3 channels heterologously expressed in human HEK293 cells. The ability is determined relative to retigabine. The activity is determined using a standard thallium (I) sensitive assay, e.g. using a fluorometric method in a Fluorescent Image Plate Reader (FLIPR) as described below in more detail.
Full concentration/response curves are generated and EC50 values are calculated based on max values. EC50 values (Effective Concentration) represent the concentration of the test substance, at which 50% of the channel activity is obtained when compared to retigabine control responses. Maximal response determined relative to the reference (retigabine) response is calculated.
Human HEK293 cells over-expressing human Kv7.2+3 are grown in culture medium (DMEM supplemented with 10% foetal bovine serum), in polystyrene culture flasks ([…]) in a humidified atmosphere of 5% CO2 in air, at 37° C. Cell confluence should be 80-90% on day of plating. Cells are rinsed with 4 ml of PBS (phosphate buffered saline) and incubated 2 min with 1 ml of Trypsin-EDTA. After addition of 25 ml of culture medium cells are re-suspended by trituration with a 25 ml pipette.
The cells are seeded at a density of ˜3×10^6 cells/ml (25 μl/well) in black-walled, clear bottom, 384-well plates pre-treated with 0.01 g/l poly-D-lysin (20 μl/well for ≧30 min). Plated cells were allowed to proliferate for 24 h before loading with dye.
BTC-AM ([…], Invitrogen) is added 25.5 μl DMSO. The BTC-AM stock solution (2 mM) is diluted to a final concentration of 2 μM in Cl^− free assay buffer (in mM: 140 Natgluconate, 2.5 K^+-gluconate, 6 Ca2^+-gluconate, 1 Mg^2+ gluconate, 5 glucose, 10 HEPES, pH 7.3) containing 2 μM ouabain, 2 mM amaranth and 1 mM tartrazine.
The culture medium is aspirated from the wells, the cells are washed thrice in Cl^− free assay buffer, and 25 μl of the BTC-AM loading solution is added to each well. The cells are incubated at 37° C. for 60 min.
After the loading period, the Tl^+-sensitive BTC fluorescence signal is measured over time using a FLIPR.
• Temperature: Room temp. • First addition: 12 μl test or control compound after 15 sec at a rate of 30 μl/sec and starting height of 20 μl • Second addition: 12 μl stimulus buffer (Cl^− free assay buffer supplemented with 1 mM Tl2SO4, 5 mM K2SO4 as well as the quenchers amaranth (2 mM) and tartrazine (1 mM)) is added after an additional 3 minutes at a rate of 30 μl/sec and starting height of 30 μl • Reading intervals: First sequence—3 sec×5, 2 sec×24 and 5 sec×25 • Second sequence—1 sec×5, 2 sec×24 and 5 sec×36
Addition plates (compound plate and stimulus plate) are placed in positions 2 and 3, respectively. Cell plates are placed in position 1 and run using the “KCNQ (two additions)” program. FLIPR will then take the appropriate measurements in accordance with the interval settings above. Fluorescence obtained after stimulation is corrected for the mean basal fluorescence (in Cl^− free assay buffer).
Full concentration/response curves are generated and EC50 values (“Effective Concentration”; the concentration at which 50% of the channel activity is obtained when compared to retigabine control responses) are calculated based on peak values. Maximal response determined relative to the reference (retigabine) response is calculated.

The EC50 is the midpoint of the concentration-response curve. Low values mean higher potency in that assay, high ones lower potency in that assay. With `O=C(CCc1cccc(F)c1)Nn1c(N2CCCC2)nc2ccccc2c1=O` [Compound 1.5, 3-(3-Fluoro-phenyl)-N-(4-oxo-2-pyrrolidin-1-yl-4H-quinazolin-3-yl)-propion-amide], the 50% effective concentration (EC50) is 410 nM and the Emax is 148%.
In the same order, the values of `O=C(CCc1ccccc1)Nn1c(N2CCCC2)nc2ccccc2c1=O` [Compound 1.6, N-(4-Oxo-2-pyrrolidin-1-yl-4H-quinazolin-3-yl)-3-phenyl-propionamide] are 660 nM and 96%.
The like results for `CN(C)c1nc2cc(F)ccc2c(=O)n1NC(=O)CCc1cccc(F)c1` [Compound 1.7, N-(2-Dimethylamino-7-fluoro-4-oxo-4H-quinazolin-3-yl)-3-(3-fluoro-phenyl)-propionamide] were, in that order, 2500 nM and 112%.
Regarding `O=C(CSc1ccccc1)Nn1c(N2CCCC2)nc2ccccc2c1=O` [Compound 1.8, N-(4-Oxo-2-pyrrolidin-1-yl-4H-quinazolin-3-yl)-2-phenylsulfanyl-acetamide], the EC50 was 3300 nM and the Emax came out at 103%.
On to `O=C(COc1ccccc1)Nn1c(N2CCCC2)nc2ccccc2c1=O` [Compound 1.9, N-(4-Oxo-2-pyrrolidin-1-yl-4H-quinazolin-3-yl)-2-phenoxy-acetamide], for which it took 12000 nM to reach a half-maximal effect (EC50) and the Emax was found to be 75%.
In the case of `O=C(CCc1cccc(F)c1)Nn1c(N2CCCC2)nc2cccc(F)c2c1=O` [Compound 1.10, N-(5-Fluoro-4-oxo-2-pyrro-lidin-1-yl-4H-quinazolin-3-yl)-3-(3-fluoro-phenyl)-propionamide], a half-maximal effect (EC50) was put at 340 nM and the Emax was 100%.
Take `O=C(CSc1ccc(F)cc1)Nn1c(N2CCCC2)nc2ccccc2c1=O` [Compound 1.11, 2-(4-Fluoro-phenylsulfanyl)-N-(4-oxo-2-pyrrolidin-1-yl-4H-quinazolin-3-yl)-acetamide]: the concentration giving a half-maximal response (EC50) amounted to 2200 nM and the Emax was found to be 106%.
The like results for `O=C(CCc1cccc(F)c1)Nn1c(N2CCCC2)nc2cc(F)cc(F)c2c1=O` [Compound 1.12, N-(5,7-Difluoro-4-oxo-2-pyrrolidin-1-yl-4H-quina-zolin-3-yl)-3-(3-fluoro-phenyl)-propionamide] were, in that order, 32 nM and 122%.
As to `CC(C)(C)c1ccc(SCC(=O)Nn2c(N3CCCC3)nc3ccccc3c2=O)cc1` [Compound 1.13, 2-(4-tert-Butyl-phenyl-sulfanyl)-N-(4-oxo-2-pyrro-lidin-1-yl-4H-quinazolin-3-yl)-acetamide], the concentration for a half-maximal effect (EC50) is 2100 nM and the Emax was 41%.
In the same order, the values of `CC(C)N(C)c1nc2cc(F)cc(F)c2c(=O)n1NC(=O)CCc1cccc(F)c1` [Compound 1.14, N-[5,7-Difluoro-2-(isopropyl-methyl-amino)-4-oxo-4H-quinazolin-3-yl]-3-(3-fluoro-phenyl)-propionamide] are 450 nM and 109%.
For the compound `O=C(CCc1cc(F)cc(F)c1)Nn1c(N2CCCC2)nc2cc(F)cc(F)c2c1=O` [Compound 1.15, N-(5,7-Difluoro-4-oxo-2-pyrrolidin-1-yl-4H-quina-zolin-3-yl)-3-(3,5-difluoro-phenyl)-propionamide], the EC50 was 18 nM and the Emax came out at 112%.
The like results for `C[C@@H](CC(=O)Nn1c(N2CCCC2)nc2cc(F)cc(F)c2c1=O)c1ccccc1` [Compound 1.16, (S)-N-(5,7-Difluoro-4-oxo-2-pyrrolidin-1-yl-4H-quina-zolin-3-yl)-3-phenyl-butyr-amide] were, in that order, 2.8 nM and 68%.
`CC(CC(=O)Nn1c(N2CCCC2)nc2ccccc2c1=O)c1ccc(Cl)cc1` (stereo not shown) [Compound 1.17, 3-(4-Chloro-phenyl)-N-(4-oxo-2-pyrrolidin-1-yl-4H-quinazolin-3-yl)-butyramide]: the midpoint of the response, the EC50, lay at 100 nM and the Emax was 85%.
With `CC(CC(=O)Nn1c(N2CCCC2)nc2ccccc2c1=O)c1cccc(F)c1` (stereo not shown) [Compound 1.18, 3-(3-Fluoro-phenyl)-N-(4-oxo-2-pyrrolidin-1-yl-4H-quinazolin-3-yl)-butyramide], the concentration for a half-maximal effect (EC50) came out at 15 nM and the Emax stood at 98%.
